Experimental data taken from publication PMC12394750, “2H-1,4-Benzoxazin-3(4H)-one linked 1,2,3-triazole derivatives and their study on inducing DNA damage in tumor cells” (Frontiers in Pharmacology, 2025).

How the values were obtained:
[1] = system: Huh-7 (hepatocellular carcinoma); experiment: CCK-8 cell viability / IC50, Huh-7; format: cell-based, human; conditions: 72 h; for IC50 / viability at 50 µM: Homo sapiens, Huh-7; for IC50: CCK-8 dose-response; for Activity against Huh-7 cells (in words) / viability at 50 µM: 50 μM, CCK-8
Protocol: (§1) To assess the cytotoxic potential of the newly synthesized compounds c1–c20, a panel of human tumor cell lines—including Huh-7 (hepatocellular carcinoma), MCF-7 (breast cancer), and A549 (lung cancer)—was treated with each compound at a concentration of 50 μM for 72 h. Cell viability and cytotoxicity were evaluated using the CCK-8 assay.
(§2) Cells were cultured in DMEM or RPMI 1640 medium with 10% FBS and 1% penicillin/streptomycin at 37 °C and 5% CO2. A CCK-8 assay was performed with several human cancer cell lines, including A549, Huh-7, MCF-7, HCT-116, and SKOV3, according to the instructions. Cells were plated at a density of 1,000–3,000 cells per well in a 96-well plate. After 24-h incubation, cells were treated with 40 μM compounds for 48 h or 50 μM compounds for 72 h. Cell viability was measured by adding 10 μL per well of CCK-8 reagent, which was dissolved in the cell culture medium, for 1 hour. Absorbance was taken at 450 nm using a microplate reader. The IC50 values of the compounds were further determined. Cells were seeded in a 96-well plate at a density of 1 × 10^3 cells/well. After adhering overnight, cells treated with […] concentrations (10 μM, 20 μM, 40 µM, or 80 μM) were used to draw the dose–response curve, and IC50 values were calculated by GraphPad Prism software. The CCK-8 assay was performed in triplicate, and each experiment was repeated at least three times. The results were expressed as mean ± SEM, and P < 0.05 was considered statistically significant.

Jurkat cells = system: Jurkat cells; design: method as in Pokhodylo et al., 2022; conditions: ref Pokhodylo et al., 2022; cited from earlier work
[2] = system: HCT116 colon cancer cells; design: method as in Mohammed et al., 2022; conditions: ref Mohammed et al., 2022; read-out: Cytotoxicity against HCT116, IC50; cited from earlier work
A549 lung cancer cells = system: A549 lung cancer cells; design: method as in Han et al., 2024; conditions: ref Han et al., 2024; cited from earlier work
A549 cell = conditions: Tummatorn's team, no reference given; read-out: A549 cell proliferation, IC50; cited from earlier work
EGFR = system: EGFR; design: method as in Sagam et al., 2024; conditions: ref Sagam et al., 2024; read-out: EGFR inhibitory activity, IC50; cited from earlier work
MCF-7 (breast cancer) = experiment: CCK-8 cell viability, MCF-7; format: cell-based; conditions: Homo sapiens, MCF7, 72 h
Protocol: as §1, §2

[3] = CCK-8 cell viability, L02; format: cell-based; conditions: human, L02 normal liver cells
A549 (lung cancer) = experiment: CCK-8 cell viability, A549; format: cell-based; conditions: Homo sapiens, 72 h
Protocol: as §1, §2

IC50 [1]	SMILES	viability at 50 µM (MCF-7 (breast cancer))	viability at 72 h, 50 µM [3]	viability at 50 µM [1]	viability at 50 µM (A549 (lung cancer))	also measured
21 ± 6.37 µM	O=c1[nH]cc(F)c(=O)[nH]1 [5-fluorouracil, reference compound]	–	–	–	–	–
–	Cc1c(C(=O)Nc2ccc(SC#N)cc2)nnn1-c1ccc(C(C)C)cc1 [compound 4a]	–	–	–	–	DNA damage (Jurkat cells): induce DNA damage; Mitochondrial membrane potential (Jurkat cells): reduce mitochondrial membrane potential
–	COc1cc(/C=C/C(=O)c2ccc(-n3cc(CN4CCN(c5cc6c(cc5F)c(=O)c(C(=O)O)cn6C5CC5)CC4)nn3)cc2)cc(OC)c1OC [compound 4j]	–	–	–	–	IC50 [2]: 2.53 µM
–	C#CCCC(=O)OC1CC2[C@@]3(C)CCC(OC(=O)CCc4cn(CC(=O)OC)nn4)C(C)(C)C3CC[C@@]2(C)[C@]2(C)CCC([C@](C)(O)CCCC(C)(C)OC)C12 (stereo partly shown) [compound 6a]	–	–	–	–	Inhibitory activity against A549 (A549 lung cancer cells): strong inhibitory activity
–	Fc1ccc2c(c1)C1=Nc3ccc(Br)cc3C1CN2Cc1cn(Cc2cccc(Cl)c2)nn1 (stereo not shown) [compound 11l]	–	–	–	–	IC50 (A549 cell): 3.01 µM
–	O=C(Cn1nnc(CCN2C(=O)COc3ccccc32)n1)Nc1ccc(Cl)cc1 [compound 12g]	–	–	–	–	IC50 (EGFR): 0.46 µM
–	O=C1COc2cc(NC(=O)c3cccc(-c4cn(Cc5c(Cl)cccc5Cl)nn4)c3)ccc2N1 [compound c1, 3-(1-(2,6-dichlorobenzyl)-1H-1,2,3-triazol-4-yl)-N-(3-oxo-3,4-dihydro-2H-benzo[b][1,4]oxazin-7-yl)benzamide]	110 ± 3.84%	84.1 ± 1.2%	83.49 ± 0.78%	97.4 ± 3.35%	Activity against Huh-7 cells (in words) [1]: limited activity
33.4 ± 0.8 µM	O=C1COc2cc(NC(=O)c3cccc(-c4cn(Cc5cccc(Cl)c5)nn4)c3)ccc2N1 [compound c2, 3-(1-(3-chlorobenzyl)-1H-1,2,3-triazol-4-yl)-N-(3-oxo-3,4-dihydro-2H-benzo[b][1,4]oxazin-7-yl)benzamide]	103 ± 1.63%	103 ± 2.36%	17.5 ± 1.15%	95.6 ± 2.98%	–
43.41 ± 0.08 µM	O=C1COc2cc(NC(=O)c3cccc(-c4cn(Cc5ccccc5F)nn4)c3)ccc2N1 [compound c3, 3-(1-(2-fluorobenzyl)-1H-1,2,3-triazol-4-yl)-N-(3-oxo-3,4-dihydro-2H-benzo[b][1,4]oxazin-7-yl)benzamide]	108.3 ± 0.68%	101 ± 3.04%	12.1 ± 0.58%	92.2 ± 3.87%	–
33.21 ± 0.11 µM	O=C1COc2cc(NC(=O)c3cccc(-c4cn(Cc5ccc(I)cc5)nn4)c3)ccc2N1 [compound c4, 3-(1-(4-iodobenzyl)-1H-1,2,3-triazol-4-yl)-N-(3-oxo-3,4-dihydro-2H-benzo[b][1,4]oxazin-7-yl)benzamide]	95.9 ± 2.14%	115.2 ± 0.81%	21.4 ± 4.91%	94 ± 1.88%	–
> 50 µM	Cc1cc(C)cc(Cn2cc(-c3cccc(C(=O)Nc4ccc5c(c4)OCC(=O)N5)c3)nn2)c1 [compound c6, 3-(1-(3,5-dimethylbenzyl)-1H-1,2,3-triazol-4-yl)-N-(3-oxo-3,4-dihydro-2H-benzo[b][1,4]oxazin-7-yl)benzamide]	84.8 ± 3.5%	99.7 ± 2.5%	25.6 ± 1.32%	81.6 ± 5.09%	–
–	N#Cc1ccccc1Cn1cc(-c2cccc(C(=O)Nc3ccc4c(c3)OCC(=O)N4)c2)nn1 [compound c7, 3-(1-(2-cyanobenzyl)-1H-1,2,3-triazol-4-yl)-N-(3-oxo-3,4-dihydro-2H-benzo[b][1,4]oxazin-7-yl)benzamide]	89.2 ± 3.16%	101 ± 3.14%	89.1 ± 3.02%	87.7 ± 6.4%	Activity against Huh-7 cells (in words) [1]: limited activity
38.48 ± 0.24 µM	O=C1COc2cc(NC(=O)c3cccc(-c4cn(Cc5cccc(C(F)(F)F)c5)nn4)c3)ccc2N1 [compound c8, N-(3-oxo-3,4-dihydro-2H-benzo[b][1,4]oxazin-7-yl)-3-(1-(3-(trifluoromethyl)benzyl)-1H-1,2,3-triazol-4-yl)benzamide]	101 ± 4.5%	103 ± 3.1%	13 ± 0.72%	86.1 ± 5.46%	–
43.1 ± 2.43 µM	O=C1COc2cc(NC(=O)c3cccc(-c4cn(Cc5ccc(F)c(Cl)c5)nn4)c3)ccc2N1 [compound c9, 3-(1-(3-chloro-4-fluorobenzyl)-1H-1,2,3-triazol-4-yl)-N-(3-oxo-3,4-dihydro-2H-benzo[b][1,4]oxazin-7-yl)benzamide]	110 ± 2.58%	103 ± 3.98%	18.8 ± 0.56%	86.2 ± 4.4%	–
> 50 µM	O=C1COc2cc(NC(=O)c3cccc(-c4cn(Cc5c(F)cccc5F)nn4)c3)ccc2N1 [compound c10, 3-(1-(2,6-difluorobenzyl)-1H-1,2,3-triazol-4-yl)-N-(3-oxo-3,4-dihydro-2H-benzo[b][1,4]oxazin-7-yl)benzamide]	81.6 ± 1.46%	68.5 ± 2.04%	24.9 ± 0.39%	61.1 ± 3.58%	–
–	N#Cc1ccc(F)cc1Cn1cc(-c2cccc(C(=O)Nc3ccc4c(c3)OCC(=O)N4)c2)nn1 [compound c11, 3-(1-(2-cyano-5-fluorobenzyl)-1H-1,2,3-triazol-4-yl)-N-(3-oxo-3,4-dihydro-2H-benzo[b][1,4]oxazin-7-yl)benzamide]	92.96 ± 0.64%	111 ± 2.9%	98 ± 1.22%	85.4 ± 2.84%	Activity against Huh-7 cells (in words) [1]: limited activity
–	O=C1COc2cc(NC(=O)c3cccc(-c4cn(Cc5ccccc5Br)nn4)c3)ccc2N1 [compound c12, 3-(1-(2-bromobenzyl)-1H-1,2,3-triazol-4-yl)-N-(3-oxo-3,4-dihydro-2H-benzo[b][1,4]oxazin-7-yl)benzamide]	87.15 ± 0.55%	105 ± 2.71%	86.1 ± 1.69%	87.7 ± 3.88%	Activity against Huh-7 cells (in words) [1]: limited activity
> 50 µM	O=C1COc2cc(NC(=O)c3cccc(-c4cn(Cc5ccc(Br)cc5F)nn4)c3)ccc2N1 [compound c13, 3-(1-(4-bromo-2-fluorobenzyl)-1H-1,2,3-triazol-4-yl)-N-(3-oxo-3,4-dihydro-2H-benzo[b][1,4]oxazin-7-yl)benzamide]	98.9 ± 2.03%	115 ± 1.35%	17.7 ± 1.58%	78.3 ± 2.72%	–
–	O=C1COc2cc(NC(=O)c3cccc(-c4cn(Cc5c(F)cccc5Cl)nn4)c3)ccc2N1 [compound c15, 3-(1-(2-chloro-6-fluorobenzyl)-1H-1,2,3-triazol-4-yl)-N-(3-oxo-3,4-dihydro-2H-benzo[b][1,4]oxazin-7-yl)benzamide]	84.6 ± 1.32%	113.7 ± 1.08%	75.8 ± 2.97%	86.5 ± 2.25%	Activity against Huh-7 cells (in words) [1]: limited activity
35.1 ± 1.84 µM	O=C1COc2cc(NC(=O)c3cccc(-c4cn(Cc5cccc(Br)c5)nn4)c3)ccc2N1 [compound c17, 3-(1-(3-bromobenzyl)-1H-1,2,3-triazol-4-yl)-N-(3-oxo-3,4-dihydro-2H-benzo[b][1,4]oxazin-7-yl)benzamide]	90.41 ± 0.51%	111.7 ± 0.92%	19.2 ± 1.88%	71.3 ± 2.9%	–
36.19 ± 0.09 µM	O=C1COc2cc(NC(=O)c3cccc(-c4cn(Cc5cccc(I)c5)nn4)c3)ccc2N1 [compound c19, 3-(1-(3-iodobenzyl)-1H-1,2,3-triazol-4-yl)-N-(3-oxo-3,4-dihydro-2H-benzo[b][1,4]oxazin-7-yl)benzamide]	97.2 ± 2.06%	103.4 ± 0.62%	28.5 ± 3.64%	80.5 ± 3.81%	–
45.9 ± 0.5 µM	Cc1ccccc1Cn1cc(-c2cccc(C(=O)Nc3ccc4c(c3)OCC(=O)N4)c2)nn1 [compound c20, 3-(1-(2-methylbenzyl)-1H-1,2,3-triazol-4-yl)-N-(3-oxo-3,4-dihydro-2H-benzo[b][1,4]oxazin-7-yl)benzamide]	112 ± 4.59%	119.1 ± 0.57%	23.6 ± 0.25%	97.85 ± 0.92%	–
–	COc1cccc2c1C(=O)c1c(O)c3c(c(O)c1C2=O)C[C@@](O)(C(=O)CO)C[C@@H]3O[C@H]1C[C@H](N)[C@H](O)[C@H](C)O1 [doxorubicin]	–	–	–	–	IC50 [2]: 1.22 µM
